Assay results: US20230159527A1, “COMPOUNDS AS BCL-2 INHIBITORS” (Fochon Pharmaceuticals, Ltd., priority 2020, published 2023)

Tests used:
Assay type in all cases: cell-based
RS4;11-BCL-2 F104L cells = test: Cell proliferation assay, engineered RS4;11 cells stably overexpressing BCL-2 F104L (MTS, 168 h); conditions: Homo sapiens, read-out: RS4, 11 BCL2-F104L
How it was run: (§1)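 Proliferation read-out: MTS for exactly 2 h, then absorbance at 490 nm, with IC50 derived from the fit. Before this, engineered RS4;11 lines (BCL-2 G101V, F104L; 5000 cells/well) were exposed 168 h at 37 °C to serially diluted compound, final 1.4–10000 nM.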

Toledo cells = test: Cell proliferation assay, Toledo cells (MTS, 72 h); conditions: Homo sapiens, Toledo cells, MTS, read-out: Toledo IC50
How it was run: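 IC50 was derived from 490 nm absorbance after a 2 h MTS step. Before that, compounds at 1.5–10000 nM final (nine points) acted on Toledo cells for 72 h at 37 °C, 5% CO2. Cells were seeded at 30000/well in 10% FBS RPMI-1640 and rested 4 h before dosing.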

RS4;11-BCL-2 G101V cells = test: Cell proliferation assay, engineered RS4;11 cells stably overexpressing BCL-2 G101V (MTS, 168 h); conditions: Homo sapiens, RS4-11, 168 h, read-out: RS4, 11 BCL2- G101V
How it was run: as §1

| SMILES | IC50 (RS4;11-BCL-2 F104L cells) | IC50 (Toledo cells) | IC50 (RS4;11-BCL-2 G101V cells) |
| --- | --- | --- | --- |
| CC(C)c1ccccc1[C@@H]1CCCN1C1CC2(CCN(c3ccc(C(=O)NS(=O)(=O)c4cc5c(c([N+](=O)[O-])c4)N[C@@H]([C@H]4CC[C@](C)(O)CC4)CO5)c(Oc4cc5cc[nH]c5nc4OC[C@H]4CCCN4C)c3)CC2)C1 (single isomer, unassigned) [Example D-130, N-(((S)-3-((1r,4S)-4-hydroxy-4-methylcyclohexyl)-5-nitro-3,4-dihydro-2H-benzo[b][1,4]oxazin-7-yl)sulfonyl)-4-(2-((R or S)-2-(2-isopropylphenyl)pyrrolidin-1-yl)-7-azaspiro[3.5]nonan-7-yl)-2-((6-(((R)-1-methylpyrrolidin-2-yl)methoxy)-1H-pyrrolo[2,3-b]pyridin-5-yl)oxy)benzamide] | 1 nM | 1 nM | 1 nM |
| CC(C)c1ccccc1[C@@H]1CCCN1C1CC2(CCN(c3ccc(C(=O)NS(=O)(=O)c4cc5c(c([N+](=O)[O-])c4)N[C@@H]([C@H]4CC[C@](C)(O)CC4)CO5)c(Oc4cc5cc[nH]c5nc4OC[C@@H]4CCCN4C)c3)CC2)C1 (single isomer, unassigned) [Example D-131, N-(((S)-3-((1r,4S)-4-hydroxy-4-methylcyclohexyl)-5-nitro-3,4-dihydro-2H-benzo[b][1,4]oxazin-7-yl)sulfonyl)-4-(2-((R or S)-2-(2-isopropylphenyl)pyrrolidin-1-yl)-7-azaspiro[3.5]nonan-7-yl)-2-((6-(((S)-1-methylpyrrolidin-2-yl)methoxy)-1H-pyrrolo[2,3-b]pyridin-5-yl)oxy)benzamide] | 1 nM | 1 nM | 1 nM |
| CC(C)c1ccccc1[C@@H]1CCCN1C1CC2(CCN(c3ccc(C(=O)NS(=O)(=O)c4cc5c(c([N+](=O)[O-])c4)N[C@@H]([C@H]4CC[C@](C)(O)CC4)CO5)c(Oc4cc5cc[nH]c5nc4OC[C@H]4COCCN4C)c3)CC2)C1 (single isomer, unassigned) [Example D-134, N-(((S)-3-((1r,4S)-4-hydroxy-4-methylcyclohexyl)-5-nitro-3,4-dihydro-2H-benzo[b][1,4]oxazin-7-yl)sulfonyl)-4-(2-((R or S)-2-(2-isopropylphenyl)pyrrolidin-1-yl)-7-azaspiro[3.5]nonan-7-yl)-2-((6-(((7)-4-methylmorpholin-3-yl)methoxy)-1H-pyrrolo[2,3-b]pyridin-5-yl)oxy)benzamide] | 1 nM | 1 nM | 1 nM |
| CC(C)c1ccccc1[C@@H]1CCCN1C1CC2(CCN(c3ccc(C(=O)NS(=O)(=O)c4cc5c(c([N+](=O)[O-])c4)N[C@@H]([C@H]4CC[C@](C)(O)CC4)CO5)c(Oc4cc5cc[nH]c5nc4OC[C@@H]4COCCN4C)c3)CC2)C1 (single isomer, unassigned) [Example D-135, N-(((S)-3-((1r,4S)-4-hydroxy-4-methylcyclohexyl)-5-nitro-3,4-dihydro-2H-benzo[b][1,4]oxazin-7-yl)sulfonyl)-4-(2-((R or S)-2-(2-isopropylphenyl)pyrrolidin-1-yl)-7-azaspiro[3.5]nonan-7-yl)-2-((6-(((S)-4-methylmorpholin-3-yl)methoxy)-1H-pyrrolo[2,3-b]pyridin-5-yl)oxy)benzamide] | 1 nM | 1 nM | 1 nM |
| CC(C)c1ccccc1[C@@H]1CCCN1C1CC2(CCN(c3ccc(C(=O)NS(=O)(=O)c4cc5c(c([N+](=O)[O-])c4)N[C@@H]([C@H]4CC[C@](C)(O)CC4)CO5)c(Oc4cc5cc[nH]c5nc4OC[C@@H]4COCCN4)c3)CC2)C1 (single isomer, unassigned) [Example D-214, N-(((S)-3-((1r,4S)-4-hydroxy-4-methylcyclohexyl)-5-nitro-3,4-dihydro-2H-benzo[b][1,4]oxazin-7-yl)sulfonyl)-4-(2-((R or S)-2-(2-isopropylphenyl)pyrrolidin-1-yl)-7-azaspiro[3.5]nonan-7-yl)-2-((6-(((S)-morpholin-3-yl)methoxy)-1H-pyrrolo[2,3-b]pyridin-5-yl)oxy)benzamide] | 1 nM | 1 nM | 1 nM |
| CC(C)c1ccccc1[C@@H]1CCCN1C1CC2(CCN(c3ccc(C(=O)NS(=O)(=O)c4cc5c(c([N+](=O)[O-])c4)N[C@@H]([C@H]4CC[C@](C)(O)CC4)CO5)c(Oc4cc5cc[nH]c5nc4OC[C@H]4COCCN4)c3)CC2)C1 (single isomer, unassigned) [Example D-216, N-(((S)-3-((1r,4S)-4-hydroxy-4-methylcyclohexyl)-5-nitro-3,4-dihydro-2H-benzo[b][1,4]oxazin-7-yl)sulfonyl)-4-(2-((R or S)-2-(2-isopropylphenyl)pyrrolidin-1-yl)-7-azaspiro[3.5]nonan-7-yl)-2-((6-(((R)-morpholin-3-yl)methoxy)-1H-pyrrolo[2,3-b]pyridin-5-yl)oxy)benzamide] | 1 nM | 1 nM | 1 nM |
| CC(C)c1ccccc1[C@@H]1CCCN1C1CC2(CCN(c3ccc(C(=O)NS(=O)(=O)c4cc5c(c([N+](=O)[O-])c4)N[C@@H]([C@H]4CC[C@](C)(O)CC4)CO5)c(Oc4cc5cc[nH]c5nc4O[C@@H]4CCN(C)C4)c3)CC2)C1 (single isomer, unassigned) [Example D-223, N-(((S)-3-((1r,4S)-4-hydroxy-4-methylcyclohexyl)-5-nitro-3,4-dihydro-2H-benzo[b][1,4]oxazin-7-yl)sulfonyl)-4-(2-((R or S)-2-(2-isopropylphenyl)pyrrolidin-1-yl)-7-azaspiro[3.5]nonan-7-yl)-2-((6-(((R)-1-methylpyrrolidin-3-yl)oxy)-1H-pyrrolo[2,3-b]pyridin-5-yl)oxy)benzamide] | 1 nM | 1 nM | 1 nM |
| CC(C)c1ccccc1[C@@H]1CCCN1C1CC2(CCN(c3ccc(C(=O)NS(=O)(=O)c4cc5c(c([N+](=O)[O-])c4)N[C@@H]([C@H]4CC[C@](C)(O)CC4)CO5)c(Oc4cc5cc[nH]c5nc4OC4CCN(C)CC4)c3)CC2)C1 (single isomer, unassigned) [Example D-229, N-(((S)-3-((1r,4S)-4-hydroxy-4-methylcyclohexyl)-5-nitro-3,4-dihydro-2H-benzo[b][1,4]oxazin-7-yl)sulfonyl)-4-(2-((R or S)-2-(2-isopropylphenyl)pyrrolidin-1-yl)-7-azaspiro[3.5]nonan-7-yl)-2-((6-((1-methylpiperidin-4-yl)oxy)-1H-pyrrolo[2,3-b]pyridin-5-yl)oxy)benzamide] | 1 nM | 1 nM | 1 nM |
| CC(C)c1ccccc1[C@@H]1CCCN1C1CC2(CCN(c3ccc(C(=O)NS(=O)(=O)c4cc5c(c([N+](=O)[O-])c4)N[C@@H]([C@H]4CC[C@](C)(O)CC4)CO5)c(Oc4cc5cc[nH]c5nc4O[C@@H]4C[C@@H](CO)N(C)C4)c3)CC2)C1 (single isomer, unassigned) [Example D-250, N-(((S)-3-((1r,4S)-4-hydroxy-4-methylcyclohexyl)-5-nitro-3,4-dihydro-2H-benzo[b][1,4]oxazin-7-yl)sulfonyl)-2-((6-(((3R,5S)-5-(hydroxymethyl)-1-methylpyrrolidin-3-yl)oxy)-1H-pyrrolo[2,3-b]pyridin-5-yl)oxy)-4-(2-((R or S)-2-(2-isopropylphenyl)pyrrolidin-1-yl)-7-azaspiro[3.5]nonan-7-yl)benzamide] | 1 nM | 1 nM | 1 nM |
| CC(C)c1ccccc1[C@@H]1CCCN1C1CC2(CCN(c3ccc(C(=O)NS(=O)(=O)c4cc5c(c([N+](=O)[O-])c4)N[C@@H]([C@H]4CC[C@](C)(O)CC4)CO5)c(Oc4cc5cc[nH]c5nc4OC[C@@H]4COCCO4)c3)CC2)C1 (single isomer, unassigned) [Example D-251, 2-((6-(((S)-1,4-dioxan-2-yl)methoxy)-1H-pyrrolo[2,3-b]pyridin-5-yl)oxy)-N-(((S)-3-((1r,4S)-4-hydroxy-4-methylcyclohexyl)-5-nitro-3,4-dihydro-2H-benzo[b][1,4]oxazin-7-yl)sulfonyl)-4-(2-((R or S)-2-(2-isopropylphenyl)pyrrolidin-1-yl)-7-azaspiro[3.5]nonan-7-yl)benzamide] | 1 nM | 1 nM | 6 nM |
| CC(C)c1ccccc1[C@@H]1CCCN1C1CC2(CCN(c3ccc(C(=O)NS(=O)(=O)c4cc5c(c([N+](=O)[O-])c4)N[C@@H]([C@H]4CC[C@](C)(O)CC4)CO5)c(Oc4cc5c(F)c[nH]c5nc4OC4CCN(C)CC4)c3)CC2)C1 (single isomer, unassigned) [Example D-286, 2-((3-fluoro-6-((1-methylpiperidin-4-yl)oxy)-1H-pyrrolo[2,3-b]pyridin-5-yl)oxy)-N-(((S)-3-((1r,4S)-4-hydroxy-4-methylcyclohexyl)-5-nitro-3,4-dihydro-2H-benzo[b] [1,4]oxazin-7-yl)sulfonyl)-4-(2-((R or S)-2-(2-isopropylphenyl)pyrrolidin-1-yl)-7-azaspiro[3.5]nonan-7-yl)benzamide] | 1 nM | 1 nM | 1 nM |
